flash point [°C]	Structure (SMILES)
60.00	Cc1cccc(Br)c1 [1-bromo-3-methylbenzene]
60.00	Fc1ccc(Br)cc1 [1-bromo-4-fluorobenzene]
59.00	C=Cc1ccccc1Cl [1-chloro-2-ethenylbenzene]
1.00	CCCCCCl [1-chloropentane]
18.00	C=COCCOC [1-ethenoxy-2-methoxyethane]
-9.00	C=COCCCC [1-ethenoxybutane]
60.00	C=Cc1cccc(C)c1 [1-ethenyl-3-methylbenzene]
52.00	C=Cc1ccc(C)cc1 [1-ethenyl-4-methylbenzene]
54.00	CCOCCOCCOCC [1-ethoxy-2-(2-ethoxyethoxy)ethane]
4.00	CCCCOCC [1-ethoxybutane]
40.00	CCOCC(C)O (stereo not given) [1-ethoxypropan-2-ol]
53.00	CCOCC(C)OC(C)=O (stereo not given) [1-ethoxypropan-2-yl acetate]
13.00	Cc1ccccc1F [1-fluoro-2-methylbenzene]
121.00	C=C(C)C(=O)OC(C)CO (stereo not given) [1-hydroxypropan-2-yl 2-methylprop-2-enoate]
72.00	O=[N+]([O-])c1cccc(I)c1 [1-iodo-3-nitrobenzene]
218.00	O=C=Nc1ccc(Cc2ccc(N=C=O)cc2)cc1 [1-isocyanato-4-[(4-isocyanatophenyl)methyl]benzene]
111.00	COCCOCCOCCOC [1-methoxy-2-[2-(2-methoxyethoxy)ethoxy]ethane]
36.00	COCC(C)O (stereo not given) [1-methoxypropan-2-ol]
118.00	CC1(C2CCC3(C)OC3C2)CO1 (stereo not given) [1-methyl-4-(2-methyloxiran-2-yl)-7-oxabicyclo[4.1.0]heptane]
46.00	C=C(C)C1CC=C(C)CC1 (stereo not given) [1-methyl-4-prop-1-en-2-ylcyclohexene]
47.00	Cc1ccc(C(C)C)cc1 [1-methyl-4-propan-2-ylbenzene]
64.00	CC1=CCC(=C(C)C)CC1 [1-methyl-4-propan-2-ylidenecyclohexene]
67.00	CC1(O)CCCCC1 [1-methylcyclohexan-1-ol]
96.00	CN1CCCC1=O [1-methylpyrrolidin-2-one]
101.00	O=[N+]([O-])c1cccc(C(F)(F)F)c1 [1-nitro-3-(trifluoromethyl)benzene]
79.00	CC(N)c1ccccc1 (stereo not given) [1-phenylethanamine]
85.00	CC(O)c1ccccc1 (stereo not given) [1-phenylethanol]

Structure (SMILES)	flash point [°C]
ClCCCBr [1-bromo-3-chloropropane]	57.00
CC(Br)c1ccccc1 (stereo not given) [1-bromoethylbenzene]	96.00
CCCCOCC(C)O (stereo not given) [1-butoxypropan-2-ol]	63.00
FC(F)=C(F)Cl [1-chloro-1,2,2-trifluoroethene]	-27.00
CCC(Cl)[N+](=O)[O-] (stereo not given) [1-chloro-1-nitropropane]	62.00
O=[N+]([O-])c1ccc(Cl)c([N+](=O)[O-])c1 [1-chloro-2,4-dinitrobenzene]	194.00
ClCc1ccccc1Cl [1-chloro-2-(chloromethyl)benzene]	91.00
CC(O)CCl (stereo not given) [1-chloropropan-2-ol]	52.00
CCCCN=C=O [1-isocyanatobutane]	19.00
Cc1ccc([N+](=O)[O-])cc1 [1-methyl-4-nitrobenzene]	106.00
O=[N+]([O-])c1ccccc1-c1ccccc1 [1-nitro-2-phenylbenzene]	143.00
CC[N+](=O)[O-] [1-nitroethane]	41.00
CC(N)Cc1ccccc1 (stereo not given) [1-phenylpropan-2-amine]	27.00

Source: a flash point compilation (Sun et al. 2020)
